Measurements as given in patent US20140142170A1, “COMPOSITION AND METHOD FOR INFLUENCING ENERGY METABOLISM AND TREATING METABOLIC AND OTHER DISORDERS” (SIRTUIN VALLEY OY, priority 2010, published 2014).
Values joined by “and” are separate entries in the source; they are usually repeats but may differ in a detail not shown here. Equal entries are not always repeated. “Also recorded” adds a separate entry of the source.

What was measured:
PGC-1α [1] = experiment: PGC-1α protein expression, immunoblot and densitometry in 3T3 L1 preadipocytes; format: cell-based; settings: 60 μM, 24 hours, control = 100%
Description: 3T3L1 cells were purchased from American Type Culture Collection (Manassas, Va., USA) and cultured in DMEM media containing 4.5 g/l glucose supplemented with 10% fetal bovine serum (Hyclone), 2 mM L-glutamine (Gibco), 100 U/ml penicillin, and 100 μg/ml streptomycin (Gibco). The cells were cultured at 37° C. in a humidified atmosphere with 10% CO2. […]
(§1) Protein concentrations were measured using a BCA (bicinchoninic acid) protein assay kit (Cat.#23225; Pierce, Rockford, Ill.). Twenty (20) μg/lane of total cellular protein samples containing NuPAGE LDS sample buffer (Invitrogen) and reducing agent were loaded into 4-12% NuPAGE Bis-Tris gels (Invitrogen), subjected to gel electrophoresis, and transferred to polyvinylidene fluoride membranes (Amersham). For SIRT1 proteins, membranes were blocked in 0.05% TBS-Tween with 3% milk for 1 hour, incubated overnight at +4° C. with SIRT1 primary antibodies (Cat.#07-131, Millipore). For phospho-AMPKα and AMPKα proteins, blocking was done for 1 hour in 0.1% TBS-Tween with 5% milk. The membranes were incubated overnight at +4° C. with phospho-AMPKα (Cat. #2535, Cell Signaling) and AMPKα (Cat.#2532, Cell Signaling) primary antibodies. Horseradish peroxidase-conjugated anti-rabbit antibodies (Cat. #NA934V GE Health Care, Amersham, U.K) were used as secondary antibodies. For α-tubulin (loading control), membranes were blocked in 0.05% PBS-Tween with 3% milk for 1 hour, incubated with α-tubulin (Cat.# B-5-1-2, Sigma) primary antibodies for 1 hour at room temperature and horseradish peroxidase-conjugated anti-mouse (Cat. # NA 931V GE Health Care, Amersham, U.K.) IgG antibodies were used as secondary antibodies.
(§2) The membranes were developed using chemiluminescence (ECL plus, GE Health Care), and images were captured in an Image Quant RT-ECL machine (version 1.0.1; GE Health Care). Densitometry and quantification of the bands were done by applying Quantity One software (Bio-Rad). The expression levels of the proteins were normalized to α-tubulin protein levels.
PGC-1α as an indicator of SIRT1 activity: PGC-1α has been extensively described as a master regulator of mitochondrial biogenesis. […] When SIRT1 protein expression is induced, it interacts with and deacetylates PGC-1α in an NAD-dependent manner. Thus SIRT1 acts as a modulator of PGC-1a (Rodgers J T et al, Nature 2005). The effects of resveratrol, a nonselective SIRT1 activator, were associated with an induction of genes for oxidative phosphorylation and mitochondrial biogenesis, and were largely explained by a resveratrol-mediated decrease in PGC-1α acetylation and an increase in PGC-1α activity (Lagouge M, Cell 2006). Therefore, PGC-1α protein expression serves as an indicator of SIRT1 activity.
3T3L1 cells were purchased from American Type Culture Collection (Manassas, Va., USA) and cultured in DMEM media containing 4.5 g/l glucose supplemented with 10% fetal bovine serum (Hyclone), 2 mM L-glutamine (Gibco) and 100 U/ml penicillin, 100 μg/ml streptomycin (Gibco). The cells were cultured at 37° C. in a humidified atmosphere with 10% CO2. 3T3L1 preadipocytes were plated at 1×10^5 cells/well in 6 well plates and incubated at 37° C. in a humidified atmosphere with 10% CO2. The media was removed after 24 hours and the cells were treated with 60 μM GR24 or with 60 μM 1A, 1B, 5A, 5B, 6A, or 7A and incubated for 24 hours at 37° C. in a humidified atmosphere with 10% CO2. In all experiments, the controls were treated with the same volume of DMSO as was used to dissolve compounds in compound-treated cells to show and ensure that the actual change in protein expression in different treatments was only due to the compounds […]. The media was removed, cells were washed with PBS and cell lysates were collected on ice. Proteins were extracted using RIPA buffer along with protease and phosphatase inhibitors. Lysates were centrifuged for 30 min at high speed; supernatant was collected and stored at −70° C. until further analysis.

phospho-AMPK = phospho-AMPK expression / AMPK activation, immunoblot in 3T3 L1 preadipocytes; format: cell-based; settings: 24 hours; for phospho-AMPK expression compared to control: 60 μM; for phosphorylated AMPK expression vs control: 3T3L1 preadipocytes, 100 μM
Description: (§3) 3T3L1 cells were purchased from American Type Culture Collection (Manassas, Va., USA) and cultured in DMEM media containing 4.5 g/l glucose supplemented with 10% fetal bovine serum (Hyclone), 2 mM L-glutamine (Gibco), 100 U/ml penicillin, and 100 μg/ml streptomycin (Gibco). The cells were cultured at 37° C. in a humidified atmosphere with 10% CO2.
(§4) The 3T3L1 cells were plated at 6×10^4 cells/well in 12 well plates and incubated at 37° C. in a humidified atmosphere with 10% CO2. […] The media was removed, cells were washed with PBS, and cell lysates were collected on ice. Proteins were extracted using RIPA buffer along with protease and phosphatase inhibitors. Lysates were centrifuged for 30 min at high speed; supernatant was collected and stored at […] until further analysis. The vehicle controls were 3T3 L1 cells without any treatment with drugs or other compounds. The drugs or compounds that were used in all the experiments were dissolved or diluted in dimethylsulfoxide (DMSO) as diluent. In all experiments, the controls were treated with the same volume of DMSO as was used to dissolve drugs or compounds in compound-treated cells to show and ensure that the actual change in protein expression in different treatments was due solely to the compounds or combination of compounds and not to the DMSO.
as §1, §2

AMPK = experiment: total AMPK expression, immunoblot in 3T3L1 preadipocytes; format: cell-based; settings: 100 μM, 24 hours
Description: as §3
as §4, with “In all experiments, the controls were treated with the same volume of DMSO as was used to dissolve drugs or compounds in compound-treated cells to show and ensure that the actual change in protein expression in different treatments was due solely to the compounds or combination of compounds and not to the DMSO.” left out
Protein concentrations were measured using a BCA (bicinchoninic acid) protein assay kit (Cat.#23225; Pierce, Rockford, Ill.). […]
The membranes were developed using chemiluminescence (ECL plus, GE Health Care), and images were captured in an Image Quant RT-ECL machine (version 1.0.1; GE Health Care). Densitometry and quantification of the bands were done by applying Quantity One software (Bio-Rad). […]

phospho-ACC = phospho-ACC expression, immunoblot in 3T3 L1 preadipocytes; format: cell-based; settings: 24 hours; for phosphorylated ACC expression vs control: 3T3L1 preadipocytes, 100 μM
[2] = system: acetyl-CoA carboxylase (ACC); experiment: ACC expression, immunoblot in 3T3L1 preadipocytes; format: cell-based; settings: 100 μM, 24 hours
PGC-1α [3] = experiment: PGC-1α protein expression, immunoblot and densitometry in 3T3 L1 preadipocytes; format: cell-based; settings: 3T3L1 preadipocytes, 100 μM, 24 hours
fungal cell = settings: cited from earlier work

CC1=CC(O/C=C2/C(=O)O[C@@H]3c4ccccc4C[C@H]23)OC1=O (stereo partly shown) [GR24]
PGC-1α protein expression compared to control (100%) (PGC-1α [1]): 168% and 164% and 198% and 220% and 149% | AMPK activation (pAMPK/AMPK/α-tubulin ratio) compared to control (phospho-AMPK; 3T3 L1 preadipocytes, 60 μM each compound): no activation | phospho-AMPK expression compared to control (phospho-AMPK; 3T3 L1 preadipocytes): significant increase in expression with resveratrol but not with GR24; also recorded: did not | phospho-AMPK expression compared to control (phospho-AMPK; 3T3 L1 preadipocytes, listed as GR 24): significant increase in expression with resveratrol but not with GR 24 | phosphorylated AMPK expression vs control (phospho-AMPK): down-regulated | phosphorylated AMPK expression vs control (phospho-AMPK; listed as GR 24): down-regulation | total AMPK expression vs control (AMPK): down-regulated | phospho-ACC expression (phosphorylation of ACC) compared to control (phospho-ACC; 3T3 L1 preadipocytes, 60 μM): no change | phosphorylated ACC expression vs control (phospho-ACC): down-regulated | phosphorylated ACC expression vs control (phospho-ACC; listed as GR 24): decrease | ACC protein expression vs control [2]: down-regulated | PGC-1α expression vs control (PGC-1α [3]): significantly increased | PGC-1α expression vs control (PGC-1α [3]; listed as GR 24): activation | ATP content of the fungal cell (fungal cell): rapid increase | NADH concentration (fungal cell): rapid increase | NADH dehydrogenase activity (fungal cell): rapid increase
